Reference: EP4555995B1, “COSMETIC USE OF A CYCLOPROPENE FATTY ACID FOR INHIBITING SCD ACTIVITY” (Laboratoires d'Anjou, priority 2023, dated 2025)
“And” between values parts separate entries of the source, which are not always exact repeats. Identical values can stand only once.

How the values were obtained:
[1] = system: cellules de mélanome murin B16 stimulées par le NDP-MSH; test: Melanin synthesis in B16 melanoma cells stimulated by NDP-MSH (total melanin content, absorbance at 405 nm); assay type: cell-based; details: for Teneur en mélanine: NDP-MSH 0,1 µM, 72 h, percent of stimulated control, individual replicates
Source text: Dans la présente étude, l'effet blanchissant potentiel de l'acide sterculique a été évalué sur la synthèse de mélanine dans les cellules de mélanome murin B16 stimulées par un analogue stable de l'α-MSH, le NDP-MSH ([Nle4, D-Phe7]-α-Melanocyte Stimulating Hormone).
Le modèle de mélanocyte B16 constitue un modèle approprié pour la recherche d'effets inhibiteurs sur la production de mélanine car il est très réactif (par exemple à une stimulation NDP-MSH), ce qui entraîne une forte modulation de la production de mélanine entre les conditions basales et les conditions stimulées. Cette forte production de mélanine dans des conditions stimulées permet d'identifier les composés présentant des propriétés blanchissantes.
(§1) • Modèle biologique : • Type cellulaire : Lignée cellulaire de mélanome murin B16 (= mélanocytes B16) • Conditions de culture : 37°C, 5% CO2 • Milieu de culture : DMEM sans rouge de phénol optimisé pour l'essai, complété par du sérum de veau fœtal à 10%. • Composé testé : acide sterculique 50, 100 et 200 µM (dans 0.066% ethanol) • Essai préliminaire de cytotoxicité • Type de cellule : Cellules de mélanome murin B16 en milieu de culture • Durée d'incubation : 72 heures • Paramètres d'évaluation : Essai de réduction WST-8 et observations morphologiques à l'aide d'un microscope. Après traitement, les cellules sont incubées avec du WST-8 (sel de tétrazolium très soluble dans l'eau) réduit en un produit soluble dans l'eau de couleur orange (formazan) par la succinate déshydrogé-nase (enzyme mitochondriale). Cette transformation est proportionnelle au nombre de cellules vivantes et à leur activité métabolique. La densité optique (DO) des extraits à 450 nm a été enregistrée avec un spectromètre (VERSAmax, Molecular Devices). • Culture et traitement
Des cellules de mélanome B16 ont été ensemencées dans une plaque à 96 puits et incubées dans un milieu de culture pendant 24 heures.
Le milieu a ensuite été remplacé par du milieu de culture, en présence de NDP-MSH à 0,1 µM, contenant ou non : - le solvant témoin (éthanol testé à 0,066 %), • le composé d'essai acide sterculique testé à 50, 100 ou 200 µM, • l'acide kojique de référence testé à 0,5 mM ou 3 mM, • la combinaison du composé testé acide sterculique (50, 100 ou 200 µM) et de l'acide kojique à 0,5 mM.
Les cellules ont été incubées pendant 72 heures. En parallèle, une condition de contrôle non stimulée a été réalisée.
À la fin du temps d'incubation, l'absorbance à 405 nm a été mesurée et la teneur totale en mélanine (extracellulaire et intracellulaire) a été calculée pour chaque échantillon à l'aide d'une courbe standard de mélanine allant de 0,78 à 100 µg/ml.
Les valeurs de fond (interférences potentielles), mesurées dans les puits sans cellules, ont été soustraites aux valeurs calculées afin de considérer l'effet lié à la production de mélanine uniquement.
Les résultats ont été exprimés en pourcentage de mélanine par rapport au contrôle stimulé.

[2] = system: cellules de mélanome murin B16; test: Preliminary cytotoxicity test, WST-8 reduction assay; assay type: cell-based; details: for % de cellules viables: 72 h incubation, WST-8, individual replicates
Method: Avant cet essai, un essai de cytotoxicité a été réalisé à l'aide d'un essai standard de réduction WST-8, afin de déterminer les concentrations à tester dans cette étude.
as §1
L'erreur standard de la moyenne (sem) est une mesure de la distance probable entre la moyenne de l'échantillon et la moyenne réelle de la population. Elle est calculée en divisant l'écart-type par la racine carrée de la taille de l'échantillon. Pourcentage deviabilité: viabilité(%) = (ODéchantillon/ODcontrôle) × 100 [formula] [formula]

cellules B16 = test: Total protein quantity (DC Protein Assay) in B16 cells of the melanin test; assay type: cell-based, murin; details: 200 µM; concluded from protein content
Method: La quantité de protéines totales contenues dans les cellules et les surnageants de chaque réplicat a été mesurée à l'aide du kit DC Protein Assay contre une gamme de BSA avec un lecteur de microplaques à 750 nm (VERSAmax, Molecular Devices).
Kit : DC Protein Assay de BIO-RAD ref 500-0116.
Limite de détection basse : 0,2 mg/ml Limite de détection haute : 2 mg/ml Pour chaque condition de test, la quantité de mélanine a été normalisée par rapport à la quantité de protéines totales.

In the case of `O=c1cc(CO)occ1O` [acide kojique, reference compound], the inhibition relative ([1]; 0,5 mM, melanin synthesis in NDP-MSH-stimulated B16 cells) is reported as 65%, the inhibition relative ([1]; 3 mM, inhibition of the NDP-MSH effect on melanin synthesis) is reported as 89% and the “Teneur en mélanine” value ([1]; KA 0,5 mM, listed as KA) is reported as 31,36483% and 49,33155% and 42,04703%. The “Teneur en mélanine” value ([1]; KA 3 mM, listed as KA) was 17,4540% and 20,7219% and 19,5020%.

In the case of `CCCCCCCCC1=C(CCCCCCCC(=O)O)C1` [acide sterculique, 8-(2-octyl-cyclopropen-1-yl)-octanoic acid], the “% de cellules viables” value ([2]; AcSter 12 µM) is reported as 112,1381% and 146,2746% and 110,4588%, the “% de cellules viables” value ([2]; AcSter 37 µM) is reported as 82,74032% and 102,0043% and 72,79147% and the “% de cellules viables” value ([2]; AcSter 111 µM) is reported as 112,2056% and 119,9363% and 106,0771%. For the same molecule, the “% de cellules viables” value ([2]; AcSter 333 µM) was 26,41552% and 44,06769% and 52,32917%, the “% de cellules viables” value ([2]; AcSter 1000 µM) was 1,061339% and 1,910951% and 2,113628% and the “% de cellules viables” value ([2]; AcSter 1,5 µM) was 133,9982% and 119,6442% and 122,5711%. The “effet sur la viabilité” value ([2]; up to 111 µM, B16 cells, WST-8 (Fig 1)) was “n'a pas eu d'effet sur la viabilité”, the “effet sur la synthèse de mélanine” value ([1]; 50 µM, NDP-MSH-stimulated B16 cells) was “n'a eu aucun effet” and the inhibition relative ([1]; 100 µM and 200 µM, strong, concentration-dependent inhibition of melanin synthesis) was ≤ 93%. For the same molecule, the “inhibition de la teneur en mélanine” value ([1]; 100 µM, B16 cells (Fig 2)) was “inhibition marquée”, the “efficacy on melanin content compared with acide kojique à 3mM” value ([1]; 200 µM, B16 cells (Fig 2)) was “aussi efficace que l'acide kojique à 3mM” and the “inhibition de la teneur en mélanine” value ([1]; 200 µM, B16 cells (Fig 2)) was “inhibition marquée”. For the same molecule, the “Teneur en mélanine” value ([1]; AS 50 µM, listed as AS) was 103,1496% and 125,1337% and 106,9156%, the “Teneur en mélanine” value ([1]; AS 100 µM, listed as AS) was 57,21785% and 56,01605% and 61,96404% and the “Teneur en mélanine” value ([1]; AS 200 µM, listed as AS) was 13,64829% and 13,90374% and 21,16183%. The viabilité des cellules (cellules B16) was “n'inhibe pas la viabilité des cellules”.
